Reference: ChEMBL document CHEMBL4340553 (Bioorg Med Chem, 2019)

Columns and labels:
[1] = system: HT-29; experiment: Cytotoxicity in human HT-29 cells assessed as reduction in cell viability incubated for 72 hrs by MTT assay; settings: HT-29, 72 h
[2] = system: NCI-H460; experiment: Cytotoxicity in human NCI-H460 cells assessed as reduction in cell viability incubated for 72 hrs by MTT assay; settings: NCI-H460, 72 h
[3] = system: MKN-45; experiment: Cytotoxicity in human MKN45 cells assessed as reduction in cell viability incubated for 72 hrs by MTT assay; settings: MKN-45, 72 h
[4] = system: MDA-MB-231; experiment: Cytotoxicity in human MDA-MB-231 cells assessed as reduction in cell viability incubated for 72 hrs by MTT assay; settings: MDA-MB-231, 72 h
[5] = target: ALK tyrosine kinase receptor (Homo sapiens, UniProt Q9UM73); experiment: Inhibition of ALK (unknown origin) using poly (Glu, Tyr) 4:1 substrate incubated for 30 mins by HTRF assay
ALK tyrosine kinase receptor, sequence (Q9UM73 whole entry): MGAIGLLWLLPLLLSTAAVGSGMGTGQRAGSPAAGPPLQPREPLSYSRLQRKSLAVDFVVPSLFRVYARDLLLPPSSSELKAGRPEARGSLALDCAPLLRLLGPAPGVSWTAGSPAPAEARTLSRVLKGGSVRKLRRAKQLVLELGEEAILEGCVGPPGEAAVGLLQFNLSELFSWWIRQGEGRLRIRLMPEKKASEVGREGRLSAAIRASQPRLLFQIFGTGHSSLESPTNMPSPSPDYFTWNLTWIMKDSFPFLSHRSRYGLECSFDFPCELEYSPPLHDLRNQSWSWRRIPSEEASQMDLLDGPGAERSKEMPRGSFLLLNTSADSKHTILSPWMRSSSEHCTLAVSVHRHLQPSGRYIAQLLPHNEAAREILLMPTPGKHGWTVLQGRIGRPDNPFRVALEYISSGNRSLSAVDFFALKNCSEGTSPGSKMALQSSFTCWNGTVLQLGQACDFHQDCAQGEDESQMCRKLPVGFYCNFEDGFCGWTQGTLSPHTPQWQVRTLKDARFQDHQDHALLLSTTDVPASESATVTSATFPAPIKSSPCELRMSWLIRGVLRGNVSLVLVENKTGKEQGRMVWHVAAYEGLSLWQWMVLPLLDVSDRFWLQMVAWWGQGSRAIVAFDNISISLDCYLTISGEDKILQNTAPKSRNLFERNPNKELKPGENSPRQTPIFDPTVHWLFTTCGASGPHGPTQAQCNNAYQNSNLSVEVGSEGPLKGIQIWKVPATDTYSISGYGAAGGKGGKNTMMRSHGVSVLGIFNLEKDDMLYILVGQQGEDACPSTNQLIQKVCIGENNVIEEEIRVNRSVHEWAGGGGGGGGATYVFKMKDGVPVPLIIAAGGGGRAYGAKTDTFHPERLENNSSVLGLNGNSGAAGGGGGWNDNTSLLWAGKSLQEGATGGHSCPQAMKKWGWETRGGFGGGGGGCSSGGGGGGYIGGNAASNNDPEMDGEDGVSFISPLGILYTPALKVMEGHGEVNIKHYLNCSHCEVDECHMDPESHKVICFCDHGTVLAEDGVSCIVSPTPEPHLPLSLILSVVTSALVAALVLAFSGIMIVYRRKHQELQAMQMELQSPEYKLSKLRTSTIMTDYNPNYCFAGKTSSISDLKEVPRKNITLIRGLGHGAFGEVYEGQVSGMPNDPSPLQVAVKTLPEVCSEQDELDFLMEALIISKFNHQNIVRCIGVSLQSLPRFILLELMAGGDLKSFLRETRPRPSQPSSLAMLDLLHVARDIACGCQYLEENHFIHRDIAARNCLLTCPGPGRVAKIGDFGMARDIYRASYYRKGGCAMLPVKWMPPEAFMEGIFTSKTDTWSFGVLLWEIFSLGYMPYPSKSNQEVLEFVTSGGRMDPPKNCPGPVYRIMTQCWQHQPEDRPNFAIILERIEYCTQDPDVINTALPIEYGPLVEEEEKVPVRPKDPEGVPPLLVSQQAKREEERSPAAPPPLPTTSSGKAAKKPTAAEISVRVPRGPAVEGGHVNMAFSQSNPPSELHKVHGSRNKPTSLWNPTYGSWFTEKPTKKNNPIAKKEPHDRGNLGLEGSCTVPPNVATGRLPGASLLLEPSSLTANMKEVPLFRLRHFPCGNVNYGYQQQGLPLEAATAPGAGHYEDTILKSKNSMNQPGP

[6] = target: Platelet-derived growth factor receptor beta (Homo sapiens, UniProt P09619); experiment: Inhibition of PDGFRbeta (unknown origin) using poly (Glu, Tyr) 4:1 substrate incubated for 30 mins by HTRF assay
Platelet-derived growth factor receptor beta, sequence (P09619 whole entry): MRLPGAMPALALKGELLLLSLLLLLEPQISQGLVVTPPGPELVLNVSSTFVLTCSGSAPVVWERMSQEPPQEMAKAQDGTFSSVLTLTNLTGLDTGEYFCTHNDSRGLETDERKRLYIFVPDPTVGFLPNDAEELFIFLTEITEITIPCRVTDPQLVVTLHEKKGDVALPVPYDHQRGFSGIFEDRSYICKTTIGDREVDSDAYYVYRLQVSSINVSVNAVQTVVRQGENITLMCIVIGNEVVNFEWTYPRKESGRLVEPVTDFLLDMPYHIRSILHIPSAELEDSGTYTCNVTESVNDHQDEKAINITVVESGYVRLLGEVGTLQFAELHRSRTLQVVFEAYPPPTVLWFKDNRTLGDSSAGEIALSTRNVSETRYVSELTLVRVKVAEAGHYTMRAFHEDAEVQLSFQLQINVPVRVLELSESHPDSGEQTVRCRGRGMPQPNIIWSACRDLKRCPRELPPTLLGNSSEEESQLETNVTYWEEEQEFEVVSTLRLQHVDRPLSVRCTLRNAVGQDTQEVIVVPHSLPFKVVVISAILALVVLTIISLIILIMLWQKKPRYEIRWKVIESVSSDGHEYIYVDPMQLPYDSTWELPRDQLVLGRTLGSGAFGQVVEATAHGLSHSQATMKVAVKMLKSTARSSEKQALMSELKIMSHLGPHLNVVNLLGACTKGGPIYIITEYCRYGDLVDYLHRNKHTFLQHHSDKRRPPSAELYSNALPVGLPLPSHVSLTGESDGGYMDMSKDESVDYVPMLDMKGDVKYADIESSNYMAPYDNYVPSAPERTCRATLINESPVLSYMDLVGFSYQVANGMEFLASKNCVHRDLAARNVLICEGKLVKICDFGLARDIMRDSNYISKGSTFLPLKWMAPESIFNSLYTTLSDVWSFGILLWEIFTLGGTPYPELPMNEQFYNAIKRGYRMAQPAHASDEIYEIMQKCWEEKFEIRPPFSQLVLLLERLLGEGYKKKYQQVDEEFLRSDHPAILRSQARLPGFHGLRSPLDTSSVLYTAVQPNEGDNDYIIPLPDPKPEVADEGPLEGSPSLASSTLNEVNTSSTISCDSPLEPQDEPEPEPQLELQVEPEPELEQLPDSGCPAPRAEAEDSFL

[7] = target: Hepatocyte growth factor receptor (Homo sapiens, UniProt P08581); experiment: Inhibition of c-Met (unknown origin) using poly (Glu, Tyr) 4:1 substrate incubated for 30 mins by HTRF assay
Hepatocyte growth factor receptor, sequence (P08581 whole entry): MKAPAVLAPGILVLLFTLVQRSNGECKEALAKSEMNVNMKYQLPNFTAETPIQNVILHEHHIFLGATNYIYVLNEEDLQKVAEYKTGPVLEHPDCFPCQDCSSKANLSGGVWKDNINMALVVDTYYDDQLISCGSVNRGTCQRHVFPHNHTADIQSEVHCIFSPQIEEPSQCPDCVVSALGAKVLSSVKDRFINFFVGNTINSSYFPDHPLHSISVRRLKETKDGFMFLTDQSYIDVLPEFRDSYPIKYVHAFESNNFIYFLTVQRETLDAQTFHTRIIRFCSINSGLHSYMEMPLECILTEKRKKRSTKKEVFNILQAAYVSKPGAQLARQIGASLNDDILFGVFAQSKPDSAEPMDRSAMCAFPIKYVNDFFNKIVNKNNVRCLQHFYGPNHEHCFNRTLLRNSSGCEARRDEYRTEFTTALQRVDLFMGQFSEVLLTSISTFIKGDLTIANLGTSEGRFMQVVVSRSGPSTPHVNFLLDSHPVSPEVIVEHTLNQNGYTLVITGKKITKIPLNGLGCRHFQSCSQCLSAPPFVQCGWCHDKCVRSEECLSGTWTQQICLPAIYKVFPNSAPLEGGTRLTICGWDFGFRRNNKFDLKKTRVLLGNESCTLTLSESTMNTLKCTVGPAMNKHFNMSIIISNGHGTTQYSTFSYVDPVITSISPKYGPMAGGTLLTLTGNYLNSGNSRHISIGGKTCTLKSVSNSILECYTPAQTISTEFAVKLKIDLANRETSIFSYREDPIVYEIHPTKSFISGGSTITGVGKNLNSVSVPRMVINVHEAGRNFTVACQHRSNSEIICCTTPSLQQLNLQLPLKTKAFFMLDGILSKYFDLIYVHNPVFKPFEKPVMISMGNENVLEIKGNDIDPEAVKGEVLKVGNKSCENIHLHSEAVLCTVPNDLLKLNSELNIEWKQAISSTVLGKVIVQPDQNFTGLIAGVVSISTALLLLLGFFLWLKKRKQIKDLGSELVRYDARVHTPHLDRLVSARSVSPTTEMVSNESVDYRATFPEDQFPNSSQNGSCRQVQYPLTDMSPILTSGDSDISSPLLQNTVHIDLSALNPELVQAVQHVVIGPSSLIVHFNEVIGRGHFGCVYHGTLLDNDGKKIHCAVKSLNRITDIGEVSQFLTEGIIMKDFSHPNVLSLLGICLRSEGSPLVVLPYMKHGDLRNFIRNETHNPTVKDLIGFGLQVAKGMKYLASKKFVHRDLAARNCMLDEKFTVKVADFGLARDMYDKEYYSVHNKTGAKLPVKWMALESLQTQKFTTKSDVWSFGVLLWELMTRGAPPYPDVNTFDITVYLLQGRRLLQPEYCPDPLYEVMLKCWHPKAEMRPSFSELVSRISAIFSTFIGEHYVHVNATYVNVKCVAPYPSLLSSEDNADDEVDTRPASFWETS

[8] = target: Vascular endothelial growth factor receptor 2 (Homo sapiens, UniProt P35968); experiment: Inhibition of KDR (unknown origin) using poly (Glu, Tyr) 4:1 substrate incubated for 30 mins by HTRF assay
[9] = target: Vascular endothelial growth factor receptor 1 (Homo sapiens, UniProt P17948); experiment: Inhibition of FLT1 (unknown origin) using poly (Glu, Tyr) 4:1 substrate incubated for 30 mins by HTRF assay
[10] = target: Macrophage-stimulating protein receptor (Homo sapiens, UniProt Q04912); experiment: Inhibition of RON (unknown origin) using poly (Glu, Tyr) 4:1 substrate incubated for 30 mins by HTRF assay
[11] = target: Mast/stem cell growth factor receptor Kit (Homo sapiens, UniProt P10721); experiment: Inhibition of c-Kit (unknown origin) using poly (Glu, Tyr) 4:1 substrate incubated for 30 mins by HTRF assay
Mast/stem cell growth factor receptor Kit, sequence (P10721 whole entry): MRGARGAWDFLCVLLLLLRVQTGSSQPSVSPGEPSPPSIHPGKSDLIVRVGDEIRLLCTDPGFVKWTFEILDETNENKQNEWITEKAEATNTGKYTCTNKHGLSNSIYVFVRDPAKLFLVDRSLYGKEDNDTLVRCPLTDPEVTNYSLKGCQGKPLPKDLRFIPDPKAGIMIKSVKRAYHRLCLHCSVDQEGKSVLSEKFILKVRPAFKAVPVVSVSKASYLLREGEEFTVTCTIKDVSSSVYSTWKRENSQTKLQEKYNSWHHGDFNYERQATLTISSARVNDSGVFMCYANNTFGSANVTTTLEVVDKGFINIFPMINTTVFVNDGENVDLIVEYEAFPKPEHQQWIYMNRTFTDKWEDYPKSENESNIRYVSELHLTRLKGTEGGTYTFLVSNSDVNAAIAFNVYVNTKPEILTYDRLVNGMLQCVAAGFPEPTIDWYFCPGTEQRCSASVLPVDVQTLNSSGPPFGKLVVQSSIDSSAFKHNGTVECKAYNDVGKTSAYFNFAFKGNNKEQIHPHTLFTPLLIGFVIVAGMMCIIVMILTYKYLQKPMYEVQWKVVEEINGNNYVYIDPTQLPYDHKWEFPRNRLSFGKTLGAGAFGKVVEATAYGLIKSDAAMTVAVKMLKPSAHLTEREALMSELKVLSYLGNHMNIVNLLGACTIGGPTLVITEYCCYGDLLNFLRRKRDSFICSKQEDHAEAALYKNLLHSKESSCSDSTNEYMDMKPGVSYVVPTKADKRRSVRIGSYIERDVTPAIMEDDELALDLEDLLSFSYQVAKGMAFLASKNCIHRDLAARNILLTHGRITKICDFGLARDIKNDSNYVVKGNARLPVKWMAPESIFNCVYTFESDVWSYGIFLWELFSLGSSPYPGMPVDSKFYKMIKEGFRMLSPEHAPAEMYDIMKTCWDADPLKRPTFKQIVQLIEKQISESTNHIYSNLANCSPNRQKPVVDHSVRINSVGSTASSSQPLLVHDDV

[12] = Inhibition of VEGFR (unknown origin) using poly (Glu, Tyr) 4:1 substrate incubated for 30 mins by HTRF assay; design: species or system Homo sapiens
[13] = target: T1, Receptor-type tyrosine-protein kinase FLT3 (Homo sapiens, UniProt P36888); experiment: Inhibition of FLT3 (unknown origin) using poly (Glu, Tyr) 4:1 substrate incubated for 30 mins by HTRF assay
T1 sequence (P36888 whole entry): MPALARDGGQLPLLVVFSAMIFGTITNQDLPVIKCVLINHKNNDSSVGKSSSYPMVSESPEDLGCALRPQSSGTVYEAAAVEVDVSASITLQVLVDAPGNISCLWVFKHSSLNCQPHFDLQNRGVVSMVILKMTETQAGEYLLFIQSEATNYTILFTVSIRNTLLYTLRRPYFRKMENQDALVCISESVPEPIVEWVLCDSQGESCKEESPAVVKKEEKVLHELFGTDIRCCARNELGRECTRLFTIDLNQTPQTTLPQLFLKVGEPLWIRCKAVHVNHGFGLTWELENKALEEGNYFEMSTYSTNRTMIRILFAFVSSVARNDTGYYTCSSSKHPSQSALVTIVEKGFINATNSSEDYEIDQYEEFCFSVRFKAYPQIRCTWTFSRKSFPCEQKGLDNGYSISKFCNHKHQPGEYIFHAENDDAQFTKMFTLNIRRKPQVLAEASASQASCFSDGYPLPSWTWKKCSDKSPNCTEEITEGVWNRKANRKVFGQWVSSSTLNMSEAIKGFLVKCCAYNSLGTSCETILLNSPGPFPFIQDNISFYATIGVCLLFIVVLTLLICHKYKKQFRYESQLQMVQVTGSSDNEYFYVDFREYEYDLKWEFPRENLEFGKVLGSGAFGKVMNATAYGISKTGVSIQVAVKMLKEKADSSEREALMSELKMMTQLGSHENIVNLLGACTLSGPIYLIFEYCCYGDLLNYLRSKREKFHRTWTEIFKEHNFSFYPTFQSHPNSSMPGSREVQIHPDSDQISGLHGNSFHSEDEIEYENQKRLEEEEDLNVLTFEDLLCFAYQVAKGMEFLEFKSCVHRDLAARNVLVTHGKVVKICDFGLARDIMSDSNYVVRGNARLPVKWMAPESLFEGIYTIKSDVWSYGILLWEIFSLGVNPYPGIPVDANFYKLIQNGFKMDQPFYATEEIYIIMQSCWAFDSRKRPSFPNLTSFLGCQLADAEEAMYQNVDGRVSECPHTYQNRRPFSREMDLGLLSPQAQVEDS

[14] = target: Epidermal growth factor receptor (Homo sapiens, UniProt P00533); experiment: Inhibition of EGFR (unknown origin) using poly (Glu, Tyr) 4:1 substrate incubated for 30 mins by HTRF assay
[15] = target: Platelet-derived growth factor receptor alpha (Homo sapiens, UniProt P16234); experiment: Inhibition of PDGFRalpha (unknown origin) using poly (Glu, Tyr) 4:1 substrate incubated for 30 mins by HTRF assay

SMILES	IC50 [1]	IC50 [2]	IC50 [3]	IC50 [4]	also measured
COc1cc2c(Oc3ccc(NC(=O)NS(=O)(=O)Cc4ccc(C)cc4)cc3F)ccnc2cc1OCCCN1CCCCC1	2170 nM	920 nM	1130 nM	2540 nM	
COc1cc2nccc(Oc3ccc(NC(=O)NS(=O)(=O)Cc4ccccc4)cc3F)c2cc1OC	3020 nM	1540 nM	1430 nM	2450 nM	
COc1cc2nccc(Oc3ccc(NC(=O)NS(=O)(=O)Cc4ccc(Cl)cc4)cc3F)c2cc1OC	2880 nM	1450 nM	1420 nM	3160 nM	
CCCCOc1cc2nccc(Oc3ccc(NC(=O)NS(=O)(=O)Cc4ccc(F)cc4)cc3F)c2cc1OC	2880 nM	1440 nM	1310 nM	2290 nM	
COc1cc2nccc(Oc3ccc(NC(=O)NS(=O)(=O)Cc4ccccc4C)cc3F)c2cc1OC	6210 nM	3020 nM	3420 nM	5670 nM	
COc1cc2nccc(Oc3ccc(NC(=O)NS(=O)(=O)Cc4ccc(C(F)(F)F)cc4)cc3F)c2cc1OC	8150 nM	12200 nM	10300 nM	9460 nM	
COc1cc2nccc(Oc3ccc(NC(=O)NS(=O)(=O)Cc4ccc(C)cc4)cc3F)c2cc1OC	7150 nM	4770 nM	5380 nM	7620 nM	
COc1cc2c(Oc3ccc(NC(=O)NS(=O)(=O)Cc4ccc(C)cc4)cc3F)ccnc2cc1OCCCN1CCOCC1	3760 nM	1540 nM	1670 nM	3860 nM	
COc1cc2c(Oc3ccc(NC(=O)NS(=O)(=O)Cc4ccccc4)cc3F)ccnc2cc1OCCCN1CCCC1	930 nM	430 nM	610 nM	1210 nM	
COc1cc2nccc(Oc3ccc(NC(=O)NS(=O)(=O)Cc4cccc(C)c4)cc3F)c2cc1OC	6030 nM	3870 nM	4540 nM	6560 nM	
CCCCOc1cc2nccc(Oc3ccc(NC(=O)NS(=O)(=O)Cc4ccccc4)cc3F)c2cc1OC	3120 nM	1840 nM	1720 nM	2400 nM	
COc1cc2c(Oc3ccc(NC(=O)NS(=O)(=O)Cc4ccc(F)cc4)cc3F)ccnc2cc1OCCCN1CCCC1	160 nM	55 nM	64 nM	490 nM	IC50 [5]: > 10000 nM; IC50 [6]: 356 nM; IC50 [7]: 1.98 nM; IC50 [8]: 95 nM; IC50 [9]: 418 nM; IC50 [10]: 375 nM; IC50 [11]: 380 nM; IC50 [12]: 689 nM; IC50 [13]: 400 nM; IC50 [14]: > 10000 nM; IC50 [15]: 242 nM
CCCCOc1cc2nccc(Oc3ccc(NC(=O)NS(=O)(=O)Cc4ccc(C)cc4)cc3F)c2cc1OC	9320 nM	5870 nM	6480 nM	8980 nM	
COc1cc2nccc(Oc3ccc(NC(=O)NS(=O)(=O)Cc4cccc(F)c4)cc3F)c2cc1OC	3060 nM	1790 nM	1630 nM	3530 nM	
COc1cc2c(Oc3ccc(NC(=O)NS(=O)(=O)Cc4ccc(F)cc4)cc3F)ccnc2cc1OCCCN1CCOCC1	340 nM	160 nM	120 nM	780 nM	
COc1cc2nccc(Oc3ccc(NC(=O)NS(=O)(=O)Cc4ccc(Cl)cc4Cl)cc3F)c2cc1OC	2970 nM	3540 nM	2240 nM	4560 nM	
COc1cc2nccc(Oc3ccc(NC(=O)NS(=O)(=O)Cc4ccc(Br)cc4)cc3F)c2cc1OC	3120 nM	1650 nM	1420 nM	2260 nM	
COc1cc2nccc(Oc3ccc(NC(=O)NS(=O)(=O)Cc4ccccc4)cc3)c2cc1OC	4350 nM	2600 nM	2080 nM	3840 nM	
COc1cc2nccc(Oc3ccc(NC(=O)NS(=O)(=O)Cc4ccc(F)cc4)cc3)c2cc1OC	3250 nM	1980 nM	1320 nM	2640 nM	
COc1cc2c(Oc3ccc(NC(=O)NS(=O)(=O)Cc4ccccc4)cc3F)ccnc2cc1OCCCN1CCOCC1	1280 nM	600 nM	330 nM	1080 nM	
COc1cc2c(Oc3ccc(NC(=O)NS(=O)(=O)Cc4ccc(F)cc4)cc3F)ccnc2cc1OCCCN1CCCCC1	320 nM	150 nM	230 nM	600 nM	
COc1cc2c(Oc3ccc(NC(=O)NS(=O)(=O)Cc4ccccc4)cc3F)ccnc2cc1OCCCN1CCCCC1	1230 nM	740 nM	650 nM	1940 nM	
COc1cc2nccc(Oc3ccc(NC(=O)NS(=O)(=O)Cc4ccccc4F)cc3F)c2cc1OC	3120 nM	1880 nM	2020 nM	2950 nM	
COc1cc2nccc(Oc3ccc(NC(=O)NS(=O)(=O)Cc4ccc(F)cc4)cc3F)c2cc1OC	2680 nM	1040 nM	960 nM	2040 nM	
COc1cc2c(Oc3ccc(NC(=O)C4(C(=O)Nc5ccc(F)cc5)CC4)cc3F)ccnc2cc1OCCCN1CCOCC1 [FORETINIB]					IC50 [12]: 4.96 nM
